SMILES strings stand for the structures. Where only a bound is given, the exact number is not on record here.

Chain of recombinant human Nav1.7 (Q15858 whole entry): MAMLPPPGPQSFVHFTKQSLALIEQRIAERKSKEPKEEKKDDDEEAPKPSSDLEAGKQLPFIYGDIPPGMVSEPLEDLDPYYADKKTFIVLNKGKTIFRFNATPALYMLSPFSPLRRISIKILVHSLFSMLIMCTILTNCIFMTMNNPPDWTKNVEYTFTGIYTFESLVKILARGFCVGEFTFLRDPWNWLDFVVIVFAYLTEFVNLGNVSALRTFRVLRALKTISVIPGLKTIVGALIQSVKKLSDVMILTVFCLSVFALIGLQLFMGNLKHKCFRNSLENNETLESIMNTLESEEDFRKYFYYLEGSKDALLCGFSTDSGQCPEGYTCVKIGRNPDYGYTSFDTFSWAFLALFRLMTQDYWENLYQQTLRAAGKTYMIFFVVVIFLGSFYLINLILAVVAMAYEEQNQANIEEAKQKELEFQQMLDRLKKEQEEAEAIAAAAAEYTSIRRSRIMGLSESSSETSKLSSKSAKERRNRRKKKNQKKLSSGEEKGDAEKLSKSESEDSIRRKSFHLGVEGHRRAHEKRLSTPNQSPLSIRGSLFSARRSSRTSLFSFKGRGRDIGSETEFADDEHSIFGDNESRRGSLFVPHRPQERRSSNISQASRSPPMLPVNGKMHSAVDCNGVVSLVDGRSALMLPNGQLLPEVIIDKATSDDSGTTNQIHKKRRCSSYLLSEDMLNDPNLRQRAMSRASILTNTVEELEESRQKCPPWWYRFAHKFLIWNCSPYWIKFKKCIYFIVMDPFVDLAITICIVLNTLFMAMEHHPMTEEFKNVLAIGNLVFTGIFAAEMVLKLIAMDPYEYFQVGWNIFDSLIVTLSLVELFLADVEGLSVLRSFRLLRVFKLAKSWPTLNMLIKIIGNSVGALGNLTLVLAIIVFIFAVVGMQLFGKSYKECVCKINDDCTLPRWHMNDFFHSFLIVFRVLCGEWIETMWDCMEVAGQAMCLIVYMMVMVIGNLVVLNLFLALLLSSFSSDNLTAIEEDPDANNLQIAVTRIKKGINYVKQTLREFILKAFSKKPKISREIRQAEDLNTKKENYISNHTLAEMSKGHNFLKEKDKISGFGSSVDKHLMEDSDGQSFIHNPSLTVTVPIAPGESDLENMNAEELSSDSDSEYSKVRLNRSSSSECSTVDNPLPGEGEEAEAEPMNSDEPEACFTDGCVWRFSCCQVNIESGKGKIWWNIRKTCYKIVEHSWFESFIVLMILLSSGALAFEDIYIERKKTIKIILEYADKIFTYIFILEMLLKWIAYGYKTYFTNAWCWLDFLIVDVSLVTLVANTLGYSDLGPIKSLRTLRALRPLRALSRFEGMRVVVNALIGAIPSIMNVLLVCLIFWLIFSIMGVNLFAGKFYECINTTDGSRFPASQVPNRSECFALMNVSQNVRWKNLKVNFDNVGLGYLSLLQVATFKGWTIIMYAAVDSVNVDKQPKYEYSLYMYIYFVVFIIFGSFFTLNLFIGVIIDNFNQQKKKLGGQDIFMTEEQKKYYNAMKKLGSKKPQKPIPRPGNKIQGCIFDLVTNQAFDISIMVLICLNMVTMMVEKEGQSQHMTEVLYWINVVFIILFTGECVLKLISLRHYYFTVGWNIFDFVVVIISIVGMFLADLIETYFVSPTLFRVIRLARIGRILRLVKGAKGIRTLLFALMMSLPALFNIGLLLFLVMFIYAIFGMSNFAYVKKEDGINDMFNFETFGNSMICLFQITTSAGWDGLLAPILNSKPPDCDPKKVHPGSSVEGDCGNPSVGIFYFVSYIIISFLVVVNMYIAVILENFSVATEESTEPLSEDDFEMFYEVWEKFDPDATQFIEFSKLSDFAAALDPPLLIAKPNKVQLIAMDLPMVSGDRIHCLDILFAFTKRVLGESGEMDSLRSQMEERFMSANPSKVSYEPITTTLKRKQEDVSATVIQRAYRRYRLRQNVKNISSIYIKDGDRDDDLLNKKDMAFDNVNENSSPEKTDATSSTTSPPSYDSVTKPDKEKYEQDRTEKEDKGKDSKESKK

One experiment has as its target recombinant human Nav1.7 (Homo sapiens (Human), UniProt Q15858). In words: FRET-based membrane potential assay, recombinant human sodium channel Nav1.7. The class given is cell-based. The conditions noted are these: HEK293 cells stably expressing recombinant human Nav1.7; veratridine + scorpion venom depolarization; read-out: FRET-Membrane Potential Nav1.7 IC50. The method, then: FRET-Based Membrane Potential Assays.
Recombinant, Human Sodium Channel, Nav1.7.
On the day of the assay, medium was removed by aspiration, and cells were washed with assay buffer [HBSS (Invitrogen, Carlsbad, Calif.) containing 20 mM HEPES (Invitrogen, Carlsbad, Calif.)]. […] Cells were incubated for 40 minutes at room temperature in the dark. […] The cells were incubated for 90 minutes at room temperature in the dark. Fluorescence readings were made using a FLIPR®^TETRA (Molecular Devices, Sunnyvale Calif.) equipped with voltage-sensor probe optics. At the start of each experiment the optimal (EC80) concentration of depolarizing agent (veratridine) was determined by testing a dilution curve of assay buffer containing veratridine (Sigma-Aldrich, St. Louis, Mo.) and 1 mg/mL scorpion venom (SVqq, from Leiurus quinquestriatus; Sigma-Aldrich, St. Louis, Mo.). […] Test compounds in the daughter plate were diluted to (˜3×) solutions in assay buffer immediately before assaying. Using the FLIPR®^TETRA, 20 μL of the (3×) compound solutions were first added to the cells, then 20 μL of depolarizing solution (3×EC80 veratridine+SVqq) were added 3 minutes later to activate the channel. […] IC50 values were calculated from curve fits of the ratio data using a four-parameter logistic Hill equation (Accelrys Assay Explorer 3.3 Client, Accelrys, San Diego, Calif.) with percent inhibition plotted against compound concentration.
Regarding `N#Cc1ccc(Oc2ccc3nc(C(=O)N4CCNC(=O)C4)ccc3c2)cc1` [Example 137, 4-({2-[(3-oxopiperazin-1-yl)carbonyl]quinolin-6-yl}oxy)benzonitrile], the half-inhibitory concentration (IC50) was 8.24 µM.
Turning to `N#Cc1ccc(Oc2ccc3nc(C(=O)N4CCC(N5CCOCC5)CC4)ccc3c2)cc1` [Example 138, 4-[(2-{[4-(morpholin-4-yl)piperidin-1-yl]carbonyl}quinolin-6-yl)oxy]benzonitrile], the IC50 came to 2.47 µM.
The same measure, in the same setting: the result for `N#Cc1ccc(Oc2ccc3nc(C(=O)N[C@@H]4CCOc5ccc(F)cc54)ccc3c2)cc1` [Example 139, 6-(4-cyanophenoxy)-N-[(4R)-6-fluoro-3,4-dihydro-2H-chromen-4-yl]quinoline-2-carboxamide] reads more than 20 µM; that for `CC(C)(C)N1CCN(C(=O)c2ccc3cc(Oc4ccc(C#N)cc4)ccc3n2)CC1` [Example 140, 4-({2-[(4-tert-butylpiperazin-1-yl)carbonyl]quinolin-6-yl}oxy)benzonitrile], 0.559 µM; that for `CC1(C)C[C@@H](NC(=O)c2ccc3cc(Oc4ccc(C#N)cc4)ccc3n2)c2cc(F)ccc2O1` [Example 141, 6-(4-cyanophenoxy)-N-[(4R)-6-fluoro-2,2-dimethyl-3,4-dihydro-2H-chromen-4-yl]quinoline-2-carboxamide], more than 20 µM.
On the same count and under the same terms, the result for `CC(C)[C@H]1CN(C(=O)c2ccc3cc(Oc4ccc(C#N)cc4)ccc3n2)CCN1` [Example 142, 4-[(2-{[(3S)-3-isopropylpiperazin-1-yl]carbonyl}quinolin-6-yl)oxy]benzonitrile] reads 0.766 µM; that for `CN1CCC(NC(=O)c2ccc3cc(Oc4ccc(C#N)cc4)ccc3n2)C1=O` (stereo not drawn) [Example 143, 6-(4-cyanophenoxy)-N-(1-methyl-2-oxopyrrolidin-3-yl)quinoline-2-carboxamide], 1.08 µM; that for `N#Cc1ccc(Oc2ccc3nc(C(=O)NCc4ncco4)ccc3c2)cc1` [Example 144, 6-(4-cyanophenoxy)-N-(1,3-oxazol-2-ylmethyl)quinoline-2-carboxamide], 0.832 µM.
Same read-out and setting: the result for `CNC(=O)CNC(=O)c1ccc2cc(Oc3ccc(C#N)cc3)ccc2n1` [Example 145, 6-(4-cyanophenoxy)-N-[2-(methylamino)-2-oxoethyl]quinoline-2-carboxamide] reads 3.09 µM; that for `N#Cc1ccc(Oc2ccc3nc(C(=O)NCC(N)=O)ccc3c2)cc1` [Example 146, N-(2-amino-2-oxoethyl)-6-(4-cyanophenoxy)quinoline-2-carboxamide], 8.03 µM; that for `N#Cc1ccc(Oc2ccc3nc(C(=O)NCCS(N)(=O)=O)ccc3c2)cc1` [Example 147, 6-(4-cyanophenoxy)-N-(2-sulfamoylethyl)quinoline-2-carboxamide], 4.28 µM.
Regarding `N#Cc1ccc(Oc2ccc3nc(C(=O)N4CCS(=O)(=O)CC4)ccc3c2)cc1` [Example 148, 4-({2[(1,1-dioxidothiomorpholin-4-yl)carbonyl]quinolin-6-yl}oxy)benzonitrile], the IC50 was 12.1 µM.
On the same count and under the same terms, the result for `NC(=O)CNC(=O)c1ccc2cc(Oc3ccc(C(F)(F)F)cn3)ccc2n1` [Example 150, N-(2-amino-2-oxoethyl)-6-{[5-(trifluoromethyl)pyridin-2-yl]oxy}quinoline-2-carboxamide] reads 2.28 µM; that for `O=C(NCc1ccccn1)c1ccc2cc(Oc3ccc(C(F)(F)F)cn3)ccc2n1` [Example 151, N-(pyridin-2-ylmethyl)-6-{[5-(trifluoromethyl)pyridin-2-yl]oxy}quinoline-2-carboxamide], 0.792 µM; that for `O=C(NC1CCS(=O)(=O)C1)c1ccc2cc(Oc3ncc(C(F)(F)F)cc3Cl)ccc2n1` (stereo not drawn) [Example 154, 6-{[3-chloro-5-(trifluoromethyl)pyridin-2-yl]oxy}-N-(1,1-dioxidotetrahydrothiophen-3-yl)quinoline-2-carboxamide], 2.32 µM.
On the same count and under the same terms, the result for `O=C(c1ccc2cc(Oc3ccc(C(F)(F)F)cn3)ccc2n1)N1CC2(CNC2)C1` [Example 157, 2,6-diazaspiro[3.3]hept-2-yl(6-{[5-(trifluoromethyl)pyridin-2-yl]oxy}quinolin-2-yl)methanone] reads more than 20 µM; that for `N#Cc1ccc(Oc2ccc3nc(C(=O)NC4CCS(=O)(=O)C4)ccc3c2)nc1` (stereo not drawn) [Example 158, 6-[(5-cyanopyridin-2-yl)oxy]-N-(1,1-dioxidotetrahydrothiophen-3-yl)quinoline-2-carboxamide], more than 20 µM; that for `Cc1cc(C)nc(Oc2ccc3nc(C(=O)NC4CCS(=O)(=O)C4)ccc3c2)n1` (stereo not drawn) [Example 162, 6-[(4,6-dimethylpyrimidin-2-yl)oxy]-N-(1,1-dioxidotetrahydrothiophen-3-yl)quinoline-2-carboxamide], more than 20 µM.
Consider `Cc1ccnc(Oc2ccc3nc(C(=O)NC4CCS(=O)(=O)C4)ccc3c2)n1` (stereo not drawn) [Example 163, N-(1,1-dioxidotetrahydrothiophen-3-yl)-6-[(4-methylpyrimidin-2-yl)oxy]quinoline-2-carboxamide], for which the IC50 was more than 20 µM.
On the same count and under the same terms, the result for `O=C(c1ccc2cc(Oc3ccc(C(F)(F)F)cn3)ccc2n1)N1C[C@H]2CNC[C@H]2C1` [Example 164, (3 aR,6aS)-hexahydropyrrolo[3,4-c]pyrrol-2(1H)-yl(6-{[5-(trifluoromethyl)pyridin-2-yl]oxy}quinolin-2-yl)methanone] reads 12.7 µM; that for `O=C(NC1CCS(=O)(=O)C1)c1ccc2cc(Oc3ccc(Cl)nn3)ccc2n1` (stereo not drawn) [Example 165, 6-[(6-chloropyridazin-3-yl)oxy]-N-(1,1-dioxidotetrahydrothiophen-3-yl)quinoline-2-carboxamide], more than 20 µM; that for `O=C1NC[C@@H]2CN(C(=O)c3ccc4cc(Oc5ccc(C(F)(F)F)cn5)ccc4n3)C[C@H]12` [Example 166, (3 aR,6aR)-5-[(6-{[5-(trifluoromethyl)pyridin-2-yl]oxy}quinolin-2-yl)carbonyl]hexahydropyrrolo[3,4-c]pyrrol-1(2H)-one], 11.1 µM.
Turning to `O=C(NC1CCS(=O)(=O)C1)c1ccc2cc(Oc3ccc(C(F)(F)F)nn3)ccc2n1` (stereo not drawn) [Example 168, N-(1,1-dioxidotetrahydrothiophen-3-yl)-6-{[6-(trifluoromethyl)pyridazin-3-yl]oxy}quinoline-2-carboxamide], the IC50 is more than 20 µM.
The same measure, in the same setting: the result for `O=C1NCCN2CCN(C(=O)c3ccc4cc(Oc5ccc(C(F)(F)F)cn5)ccc4n3)CC12` (stereo not drawn) [Example 169, 8-[(6-{[5-(trifluoromethyl)pyridin-2-yl]oxy}quinolin-2-yl)carbonyl]hexahydro-2H-pyrazino[1,2-a]pyrazin-1(6H)-one] reads 17.2 µM; that for `O=C(c1ccc2cc(Oc3ccc(C(F)(F)F)cn3)ccc2n1)N1CCn2cnnc2C1` [Example 170, 5,6-dihydro[1,2,4]triazolo[4,3-a]pyrazin-7(8H)-yl(6-{[5-(trifluoromethyl)pyridin-2-yl]oxy}quinolin-2-yl)methanone], 8.87 µM.

Staying with this experiment, now noted: read-out: FRET-Membrane Potential Nav1.7 IC50.
As for `CC(C)C(O)CNC(=O)c1ccc2cc(Oc3ccc(C#N)cc3)ccc2n1` (stereo not drawn) [Example 135, 6-(4-cyanophenoxy)-N-(2-hydroxy-3-methylbutyl)quinoline-2-carboxamide], the IC50 turned out to be 0.688 µM.
The same measure, in the same setting: as for `N#Cc1ccc(Oc2ccc3nc(C(=O)NC4CCS(=O)(=O)C4)ccc3c2)cc1` (stereo not drawn) [Example 136, 6-(4-cyanophenoxy)-N-(1,1-dioxidotetrahydrothiophen-3-yl)quinoline-2-carboxamide], the figure is 0.533 µM.
The same measure, in the same setting: as for `O=C(c1ccc2cc(Oc3cccc(C(F)(F)F)n3)ccc2n1)N1CCNCC1` [Example 153, piperazin-1-yl(6-{[6-(trifluoromethyl)pyridin-2-yl]oxy}quinolin-2-yl)methanone], the figure is 3.3 µM; as for `O=C(NC1CCS(=O)(=O)C1)c1ccc2cc(Oc3ncc(C(F)(F)F)cn3)ccc2n1` (stereo not drawn) [Example 155, N-(1,1-dioxidotetrahydrothiophen-3-yl)-6-{[5-(trifluoromethyl)pyrimidin-2-yl]oxy}quinoline-2-carboxamide], 5.38 µM.
Regarding `O=C(c1ccc2cc(Oc3ccc(C(F)(F)F)cn3)ccc2n1)N1CC2(COC2)C1` [Example 156, 2-oxa-6-azaspiro[3.3]hept-6-yl(6-{[5-(trifluoromethyl)pyridin-2-yl]oxy}quinolin-2-yl)methanone], the half-inhibitory concentration (IC50) is more than 20 µM.
The same measure, in the same setting: as for `N#Cc1ccc(Oc2ccc3nc(C(=O)N[C@H]4CCS(=O)(=O)C4)ccc3c2)cc1` [Example 159, 6-(4-cyanophenoxy)-N-[(3S)-1,1-dioxidotetrahydrothiophen-3-yl]quinoline-2-carboxamide], the figure is 0.73 µM.
The same measure, in the same setting: the result for `N#Cc1ccc(Oc2ccc3nc(C(=O)N[C@@H]4CCS(=O)(=O)C4)ccc3c2)cc1` [Example 160, 6-(4-cyanophenoxy)-N-[(3R)-1,1-dioxidotetrahydrothiophen-3-yl]quinoline-2-carboxamide] reads 0.71 µM; that for `Cc1cnc(Oc2ccc3nc(C(=O)NC4CCS(=O)(=O)C4)ccc3c2)nc1` (stereo not drawn) [Example 161, N-(1,1-dioxidotetrahydrothiophen-3-yl)-6-[(5-methylpyrimidin-2-yl)oxy]quinoline-2-carboxamide], more than 20 µM.

Source of the values: patent US9452986B2, “6-heteroaryloxy- or 6-aryloxy-quinoline-2-carboxamides and method of use” (AbbVie Inc., priority 2014, dated 2016).
